Patent US20230398110A1, “COMPOSITIONS AND METHODS FOR TREATING NON-ALCOHOLIC STEATOHEPATITIS” (ASCENTAGE PHARMA (SUZHOU) CO., LTD., priority 2020, published 2023)

Legend:
[1] = test system: rats with DEN-HFD-CHOL induced non-alcoholic steatohepatitis; assay: DEN-HFD-CHOL induced NASH rat model, liver histology (NAS score, fibrosis); assay type: in vivo; conditions: 42 days; for NAS score (FIG. 3B) / ballooning (FIG. 3B) / steatosis, lobular inflammation and hepatocellular ballooning (HE-staining of liver tissue, FIG. 3A): Compound 1 10 and 30 mg/kg, GFT505 30 mg/kg
Description: Male SD rats, with an age of 10 days, were purchased from Vital River Co., Ltd (Beijing).
The rats were given a one-time intraperitoneal injection of diethylnitrosamine (DEN) two weeks after birth, and continued breast milk feeding for two weeks.
After four weeks, a total of 56 male rats were selected and divided into 7 groups according to animal weight. The rats were started on a high-fat, high-cholesterol diet (HFD-CHOL), with a feeding cycle of 12 weeks. Before intraperitoneal injection of DEN, 5 male rats were randomly selected for parallel feeding as a control cohort, which were fed a standard diet and not injected with DEN.
After 7 weeks of HFD-CHOL diet feeding, the animals were randomized and treatment with vehicle or the indicated compound was started. The test article administration and the animal numbers in each group are shown in the following experimental design Table 5.
The body weight of animals was measured at the day of the last administration (the end of the test). After the animal were fasted for 6 hours, all animals were euthanatized to collect blood and liver samples for biochemical and histological analysis.
Liver tissue from animals in each group were analyzed for NAS scores, the unweighted sum of the steatosis (0-3), lobular inflammation (0-3) and hepatocellular ballooning (0-2) scores, after HE-staining, and analyzed for liver fibrosis score (0-4) after Sirius red staining.
Liver tissue from animals in each group were analyzed for NAS scores using the methods disclosed above in Example 16. Specifically, the scores assessed were: • 1) the unweighted sum of the steatosis (0-3); • 2) lobular inflammation (0-3); • 3) hepatocellular ballooning (0-2); and • 4) liver fibrosis score (0-4), after Sirius red staining.
(§1) Prism, version 6, (GraphPad Software Inc., San Diego, CA) was used for all statistical analysis and for graphic presentation.
After drug treatment for 42 days, animals were euthanatized to collect liver samples for pathological analysis.

[2] = test system: C57BL/6J mice induced with high-fat diet (HFD) and CCl4; assay: HFD/CCl4 NASH mouse model, liver histology (NAS score, fibrosis); assay type: in vivo
Protocol: Male C57BL/6J mice with an age of 18 weeks were purchased from GemPharmatech Co., Ltd (Nanjing, Jiangsu). Mice were first fed with high-fat diet (HFD) for 11 weeks to induced obesity. Carbon tetrachloride (25% CCl4, 0.5 μl/g) was then intraperitoneally injected twice weekly for 4 consecutive weeks, to induce liver damages, leading to inflammation, cell death and fibrosis. The day of the first carbon tetrachloride injection was dated as day 0. At day 7, the animals were randomized and treatment started. The test article administration and the animal numbers in each group are shown in the following experimental design Table 3.
All animals were euthanatized at day 28 to collect blood and liver samples for biochemical and histological analysis.
Liver tissue from animals in each group were analyzed for NAS scores.
Specifically, the scores assessed were: • 1) the unweighted sum of the steatosis (0-3); • 2) lobular inflammation (0-3); • 3) hepatocellular ballooning (0-2); and • 4) liver fibrosis score (0-4), after Sirius red staining.
Liver tissues of each group of animals were taken, and NAS scores were analyzed by hematoxylin-eosin (HE) staining, and liver fibrosis was analyzed by Sirius red staining.
After staining, the NAS scores of the prepared samples were evaluated. In hematoxylin-eosin stained sections, NAS scores were evaluated according to the degree of steatosis, inflammatory cell infiltration and […].
After staining, fibrosis of the liver was additionally evaluated. All sections stained with Sirius Red were scanned by an Aperio VERSA 200 Brightfield & Fluorescenc slice scanner. Two fields were randomly selected under a 5×field of view. The two fields covered 85% of the liver tissue area. Quantitative analysis to calculate the area of fibrosis deposition in the slices was performed.
as §1
After drug treatment for 21 days, animals were euthanatized to collect liver samples for pathological analysis.

[3] = biological target: Mcl-1 (Homo sapiens, UniProt Q07820); assay: FP saturation binding of fluorescent probe to Mcl-1; conditions: 2 nM probe, read-out: Kd of Flu-BID to Mcl-1
Sequence of Mcl-1 (Q07820 whole entry): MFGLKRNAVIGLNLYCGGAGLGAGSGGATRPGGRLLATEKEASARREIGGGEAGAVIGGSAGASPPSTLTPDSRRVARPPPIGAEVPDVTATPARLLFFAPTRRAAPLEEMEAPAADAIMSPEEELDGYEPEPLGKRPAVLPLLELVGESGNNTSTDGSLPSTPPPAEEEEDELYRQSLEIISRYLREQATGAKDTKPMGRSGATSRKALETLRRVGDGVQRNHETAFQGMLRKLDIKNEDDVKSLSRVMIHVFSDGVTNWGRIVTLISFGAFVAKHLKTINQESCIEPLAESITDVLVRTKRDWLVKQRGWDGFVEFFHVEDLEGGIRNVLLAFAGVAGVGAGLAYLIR
Protocol: Fluorescence polarization values were measured using an Infinite M-1000 plate reader (Tecan U.S., Research Triangle Park, N.C.) in Microfluor 96-well, black, round-bottom plates (Thermo Scientific). […] Plates were mixed and incubated at room temperature for 1 hour with gentle shaking to assure equilibrium. […] Equilibrium dissociation constants (Kd) were then calculated by fitting the sigmoidal dose-dependent FP increases as a function of protein concentrations using Graphpad Prism 5.0 software (Graphpad Software, San Diego, Calif.).

[4] = Compound 1 10 and 30 mg/kg vs GFT505 30 mg/kg, qd p.o.
[5] = Compound 1 50 mg/kg qd p.o., 21 days

## CSc1ccc(C(=O)/C=C/c2cc(C)c(OC(C)(C)C(=O)O)c(C)c2)cc1 [GFT505, elafibranor, reference compound]
[1]; qd p.o.
  NAS score (FIG. 3B): significantly reduced
  ballooning (FIG. 3B): completely abolished
  steatosis, lobular inflammation and hepatocellular ballooning (HE-staining of liver tissue, FIG. 3A): alleviated

## O=C(NS(=O)(=O)c1ccc(NC[C@H]2COCCO2)c([N+](=O)[O-])c1)c1ccc(N2CCN(CC3=C(c4ccc(Cl)cc4)CC4(CCC4)CC3)CC2)cc1Oc1cnc2[nH]ccc2c1 [Compound 1, (S)-N-((4-(((1,4-dioxan-2-yl)methyl)amino)-3-nitrophenyl)sulfonyl)-2-((1H-pyrrolo[2,3-b]pyridin-5-yl)oxy)-4-(4-((6-(4-chlorophenyl)spiro[3.5]non-6-en-7-yl)methyl)piperazin-1-yl)benzamide]
[1]; Compound 1 10 and 30 mg/kg qd p.o.
  fibrosis (Sirius red staining, fibrosis score, FIG. 4A/4B): modest alleviation
[1]; [4]
  anti-inflammation effects compared with GFT505: improved anti-inflammation effects
  effects on steatosis compared with GFT505: more modest effects
[1]; qd p.o.
  NAS score (FIG. 3B): significantly reduced
  ballooning (FIG. 3B): completely abolished
  steatosis, lobular inflammation and hepatocellular ballooning (HE-staining of liver tissue, FIG. 3A): alleviated
[2]; Compound 1 50 mg/kg qd p.o. single agent, in comparison to OCA
  fibrosis (Sirius red staining, fibrosis score, FIG. 2A/2B): modest effect
[2]; [5]
  ballooning (NAS score analysis, FIG. 1B): modest effects
  steatosis (NAS score analysis, FIG. 1B): reduced
[2]; Compound 1 50 mg/kg qd p.o., OCA 30 mg/kg qd p.o., alone or combined, 21 days
  steatosis, lobular inflammation and hepatocellular ballooning (HE-staining of liver tissue, FIG. 1A): alleviated
[2]; Compound 1 50 mg/kg vs OCA 30 mg/kg, qd p.o., 21 days
  anti-inflammation effect compared with OCA alone: better anti-inflammation effect than OCA alone
[2]; Compound 1 50 mg/kg, OCA 30 mg/kg, qd p.o., 21 days
  inflammation (NAS score analysis, FIG. 1B): reduced

## Flu-BID: Fluorescein labeled BID (79-99) peptide, fluorescent probe in FP assay for Mcl-1
[3]
  Kd: 6.9 ± 0.9 nM
